Assay results published in US10336761B2, “TGFβ receptor antagonist” (BRISTOL-MYERS SQUIBB COMPANY, priority 2015, dated 2019).
pIC50: −log10 of the molar value.

Biological target: HIS-TGFβR1 T204D (Homo sapiens (Human), UniProt P36897, T204D)
Assay: HTRF probe-displacement assay, HIS-TGFβR1 T204D
Type: binding
Conditions: 1 hour at room temperature

Chain of HIS-TGFβR1 T204D (P36897 34-503 T204D): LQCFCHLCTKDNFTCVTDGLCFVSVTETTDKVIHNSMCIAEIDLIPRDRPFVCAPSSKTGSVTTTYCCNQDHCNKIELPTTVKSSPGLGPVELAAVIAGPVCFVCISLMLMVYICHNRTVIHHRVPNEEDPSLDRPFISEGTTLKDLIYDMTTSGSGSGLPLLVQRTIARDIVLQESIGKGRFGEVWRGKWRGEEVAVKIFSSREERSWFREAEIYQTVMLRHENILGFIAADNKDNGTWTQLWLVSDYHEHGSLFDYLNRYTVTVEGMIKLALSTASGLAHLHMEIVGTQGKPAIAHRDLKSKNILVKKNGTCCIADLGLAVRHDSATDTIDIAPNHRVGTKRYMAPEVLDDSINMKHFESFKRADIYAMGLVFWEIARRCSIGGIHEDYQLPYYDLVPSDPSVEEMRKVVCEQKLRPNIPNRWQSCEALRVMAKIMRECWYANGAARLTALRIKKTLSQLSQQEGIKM

SMILES	pIC50
O=C(c1cnccc1Nc1nc(-c2cccc(C(F)F)n2)nn2cccc12)N1CCC(O)(c2ccccc2)CC1 [Example 185, 1-[4-({2-[6-(difluoromethyl)pyridin-2-yl]pyrrolo[2,1-f][1,2,4]triazin-4-yl}amino)pyridine-3-carbonyl]-4-phenylpiperidin-4-ol]	5.92
O=C(N[C@@H]1CCCC[C@H]1O)c1cnccc1Nc1nc(-c2cccc(C(F)F)n2)nn2cccc12 [Example 180, 4-({2-[6-(difluoromethyl)pyridin-2-yl]pyrrolo[2,1-f][1,2,4]triazin-4-yl}amino)-N-[(1R,2R)-2-hydroxycyclohexyl]pyridine-3-carboxamide]	6.42
Fc1cnccc1Nc1nc(-c2cccc(OC(F)(F)F)n2)nn2cccc12 [Example 289, 3-fluoro-N-{2-[6-(trifluoromethoxy)pyridin-2-yl]pyrrolo[2,1-f][1,2,4]triazin-4-yl}pyridin-4-amine]	8.52
COc1cccc(-c2nc(Nc3ccncc3F)c3c(C(O)CNCCN4CCS(=O)(=O)CC4)ccn3n2)n1 (stereo not shown) [Example 131, 4-{2-[(2-{4-[(3-fluoropyridin-4-yl)amino]-2-(6-methoxypyridin-2-yl)pyrrolo[2,1-f][1,2,4]triazin-5-yl}-2-hydroxyethyl)amino]ethyl}-1,4-thiomorpholine-1,1-dione]	7.25
COc1cccc(-c2nc(Nc3ccncn3)c3cccn3n2)n1 [Example 67, N-[2-(6-methoxypyridin-2-yl)pyrrolo[2,1-f][1,2,4]triazin-4-yl]pyrimidin-4-amine]	7.26
Cc1cccc(-c2nc(Nc3ccncc3F)c3c(CN4CCN(CCO)CC4)ccn3n2)n1 [Example 259, 2-[4-({4-[(3-fluoropyridin-4-yl)amino]-2-(6-methylpyridin-2-yl)pyrrolo[2,1-f][1,2,4]triazin-5-yl}methyl)piperazin-1-yl]ethan-1-ol]	9.03
Clc1cnccc1Nc1nc(-c2ccccn2)nn2cccc12 [Example 54, 3-chloro-N-[2-(pyridin-2-yl)pyrrolo[2,1-f][1,2,4]triazin-4-yl]pyridin-4-amine]	8.80
Cn1nccc1-c1nc(Nc2ccncc2F)c2cccn2n1 [Example 10, 3-fluoro-N-[2-(1-methyl-1H-pyrazol-5-yl)pyrrolo[2,1-f][1,2,4]triazin-4-yl]pyridin-4-amine]	6.21
O=c1[nH]c2ccccc2n1C1CCN(Cc2ccn3nc(-c4ccccn4)nc(Nc4ccncc4F)c23)CC1 [Example 278, 1-[1-({4-[(3-fluoropyridin-4-yl)amino]-2-(pyridin-2-yl)pyrrolo[2,1-f][1,2,4]triazin-5-yl}methyl)piperidin-4-yl]-2,3-dihydro-1H-1,3-benzodiazol-2-one]	8.74
Cc1csc(-c2nc(Nc3ccncc3Cl)c3cccn3n2)n1 [Example 87, 3-chloro-N-[2-(4-methyl-1,3-thiazol-2-yl)pyrrolo[2,1-f][1,2,4]triazin-4-yl]pyridin-4-amine]	9.04
O=C(NCCC(F)(F)F)c1cnccc1Nc1nc(-c2cccc(C(F)F)n2)nn2cccc12 [Example 202, 4-({2-[6-(difluoromethyl)pyridin-2-yl]pyrrolo[2,1-f][1,2,4]triazin-4-yl}amino)-N-(3,3,3-trifluoropropyl)pyridine-3-carboxamide]	6.85
COCC(=O)Nc1cc(Nc2nc(-c3cccc(C(F)(F)F)n3)nn3cccc23)ccn1 [Example 336, 2-methoxy-N-[4-({2-[6-(trifluoromethyl)pyridin-2-yl]pyrrolo[2,1-f][1,2,4]triazin-4-yl}amino)pyridin-2-yl]acetamide]	8.80
Cc1cccc(-c2nc(Nc3ccncc3C(=O)NCCN3CCCCC3)c3cccn3n2)n1 [Example 155, 4-{[2-(6-methylpyridin-2-yl)pyrrolo[2,1-f][1,2,4]triazin-4-yl]amino}-N-[2-(piperidin-1-yl)ethyl]pyridine-3-carboxamide]	8.17
CC(=O)Nc1cc(Nc2nc(-c3ccc(F)c(C)n3)nn3cccc23)ccn1 [Example 19, N-(4-{[2-(5-fluoro-6-methylpyridin-2-yl)pyrrolo[2,1-f][1,2,4]triazin-4-yl]amino}pyridin-2-yl)acetamide]	9.08
Fc1cnccc1Nc1nc(-c2ccccn2)nn2ccc(CNCCc3ccccn3)c12 [Example 304, 3-fluoro-N-[2-(pyridin-2-yl)-5-({[2-(pyridin-2-yl)ethyl]amino}methyl)pyrrolo[2,1-f][1,2,4]triazin-4-yl]pyridin-4-amine]	8.60
COc1cccc(-c2nc(Nc3ccnc(NCCN4CCC(F)(F)CC4)c3)c3cccn3n2)n1 [Example 34, 2-N-[2-(4,4-difluoropiperidin-1-yl)ethyl]-4-N-[2-(6-methoxypyridin-2-yl)pyrrolo[2,1-f][1,2,4]triazin-4-yl]pyridine-2,4-diamine]	6.32
N#CCCC(=O)Nc1cc(Nc2nc(-c3cccc(C(F)(F)F)n3)nn3cccc23)ccn1 [Example 338, 3-cyano-N-[4-({2-[6-(trifluoromethyl)pyridin-2-yl]pyrrolo[2,1-f][1,2,4]triazin-4-yl}amino)pyridin-2-yl]propanamide]	9.10

SMILES	pIC50
FC(F)c1cnccc1Nc1nc(-c2cccc(C(F)(F)F)n2)nn2cccc12 [Example 2, 3-(difluoromethyl)-N-{2-[6-(trifluoromethyl)pyridin-2-yl]pyrrolo[2,1-f][1,2,4]triazin-4-yl}pyridin-4-amine]	7.96
OC1CCCCC1NCc1ccn2nc(-c3ccccn3)nc(Nc3ccncc3F)c12 (stereo not shown) [Example 272, 2-[({4-[(3-fluoropyridin-4-yl)amino]-2-(pyridin-2-yl)pyrrolo[2,1-f][1,2,4]triazin-5-yl}methyl)amino]cyclohexan-1-ol]	8.96
COC(=O)Nc1cc2c(Nc3ccncc3F)nc(-c3cccc(OC)n3)nn2c1 [Example 73, Methyl N-{4-[(3-fluoropyridin-4-yl)amino]-2-(6-methoxypyridin-2-yl)pyrrolo[2,1-f][1,2,4]triazin-6-yl}carbamate]	7.13
CS(=O)(=O)Nc1cccc(-c2nc(Nc3ccncc3)c3cccn3n2)n1 [Example 8, N-(6-{4-[(pyridin-4-yl)amino]pyrrolo[2,1-f][1,2,4]triazin-2-yl}pyridin-2-yl)methanesulfonamide]	7.92
O=C(c1cnccc1Nc1nc(-c2cccc(C(F)F)n2)nn2cccc12)N1CCC1 [Example 189, 3-(azetidine-1-carbonyl)-N-{2-[6-(difluoromethyl)pyridin-2-yl]pyrrolo[2,1-f][1,2,4]triazin-4-yl}pyridin-4-amine]	8.37
Cc1nc(-c2nc(Nc3ccncc3C(=O)NCCN3CCCCC3)c3cccn3n2)ccc1F [Example 141, 4-{[2-(5-fluoro-6-methylpyridin-2-yl)pyrrolo[2,1-f][1,2,4]triazin-4-yl]amino}-N-[2-(piperidin-1-yl)ethyl]pyridine-3-carboxamide]	8.30
Cc1cccc(-c2nc(Nc3ccncc3C(=O)NC[C@H](O)CO)c3cccn3n2)n1 [Example 158, N-[(2S)-2,3-dihydroxypropyl]-4-{[2-(6-methylpyridin-2-yl)pyrrolo[2,1-f][1,2,4]triazin-4-yl]amino}pyridine-3-carboxamide]	8.10
NC(=O)c1cc(Nc2nc(-c3cccc(C(F)(F)F)n3)nn3cccc23)ccn1 [Example 315, 4-({2-[6-(trifluoromethyl)pyridin-2-yl]pyrrolo[2,1-f][1,2,4]triazin-4-yl}amino)pyridine-2-carboxamide]	6.05
Fc1cnccc1Nc1nc(-c2ccccn2)nn2ccc(CNC3CCCNC3)c12 (stereo not shown) [Example 267, 3-fluoro-N-(5-{[(piperidin-3-yl)amino]methyl}-2-(pyridin-2-yl)pyrrolo[2,1-f][1,2,4]triazin-4-yl)pyridin-4-amine]	8.62
Fc1cnccc1Nc1nc(-c2ccccn2)nn2ccc(CNCC3CCC3)c12 [Example 271, N-(5-{[(cyclobutylmethyl)amino]methyl}-2-(pyridin-2-yl)pyrrolo[2,1-f][1,2,4]triazin-4-yl)-3-fluoropyridin-4-amine]	8.92
COc1cccc(-c2nc(Nc3ccnc(NCCCN(C)C)c3)c3cccn3n2)n1 [Example 135, 2-N-[3-(dimethylamino)propyl]-4-N-[2-(6-methoxypyridin-2-yl)pyrrolo[2,1-f][1,2,4]triazin-4-yl]pyridine-2,4-diamine]	7.06
O=C(CCC(F)(F)F)Nc1cc(Nc2nc(-c3cccc(C(F)(F)F)n3)nn3cccc23)ccn1 [Example 337, 4,4,4-trifluoro-N-[4-({2-[6-(trifluoromethyl)pyridin-2-yl]pyrrolo[2,1-f][1,2,4]triazin-4-yl}amino)pyridin-2-yl]butanamide]	8.48
O=C(NCc1nc[nH]n1)c1cnccc1Nc1nc(-c2cccc(C(F)F)n2)nn2cccc12 [Example 191, 4-({2-[6-(difluoromethyl)pyridin-2-yl]pyrrolo[2,1-f][1,2,4]triazin-4-yl}amino)-N-(1H-1,2,4-triazol-3-ylmethyl)pyridine-3-carboxamide]	7.19
OC1(c2ccccc2)CCN(Cc2ccn3nc(-c4ccccn4)nc(Nc4ccncc4F)c23)CC1 [Example 277, 1-({4-[(3-fluoropyridin-4-yl)amino]-2-(pyridin-2-yl)pyrrolo[2,1-f][1,2,4]triazin-5-yl}methyl)-4-phenylpiperidin-4-ol]	8.82
Cc1cccc(-c2nc(Nc3ccncc3C(=O)NCCN3CCCC3)c3cccn3n2)n1 [Example 152, 4-{[2-(6-methylpyridin-2-yl)pyrrolo[2,1-f][1,2,4]triazin-4-yl]amino}-N-[2-(pyrrolidin-1-yl)ethyl]pyridine-3-carboxamide]	8.28
O=C(NC1CCOC1)c1cnccc1Nc1nc(-c2cccc(C(F)F)n2)nn2cccc12 (stereo not shown) [Example 177, 4-({2-[6-(difluoromethyl)pyridin-2-yl]pyrrolo[2,1-f][1,2,4]triazin-4-yl}amino)-N-(oxolan-3-yl)pyridine-3-carboxamide]	7.68
O=C(NCc1cocn1)c1cnccc1Nc1nc(-c2cccc(C(F)F)n2)nn2cccc12 [Example 195, 4-({2-[6-(difluoromethyl)pyridin-2-yl]pyrrolo[2,1-f][1,2,4]triazin-4-yl}amino)-N-(1,3-oxazol-4-ylmethyl)pyridine-3-carboxamide]	7.59
